The values that follow come from US20220073536A1 (Rigel Pharmaceuticals, Inc., priority 2003, published 2022).

This assay relates to cultured human mast cells (CHMC). The assay can be described thus: CHMC low cell density IgE activation: tryptase assay. The format is cell-based. The settings on record: low cell density, IgE activation. The method, boiled down: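 Low-density CHMC, 1000-1500 cells/well in MT; 1 hr 37 °C; anti-IgE challenge 30 min 37 °C; supernatant tryptase via fluorogenic substrate, 30 min RT.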

Setting [1] is: 3 pt, read-out: LD Tryptase, CHMC, IgE, 3 pt.
[2] abbreviates: 8 pt, read-out: LD Tryptase, CHMC, IgE, 8 pt.
Setting [3] is: Homo sapiens, Mast cell, 3 pt, read-out: LD Tryptase, CHMC, IgE, 3 pt.
Setting [4] is: Homo sapiens, Mast cell, 8 pt, read-out: LD Tryptase, CHMC, IgE, 8 pt.

Like-named read-outs stand apart in the source and are kept apart here.

Consider `CNC(=O)COc1cccc(Nc2ncc(F)c(Nc3ccc(OC)c(Cl)n3)n2)c1` [Compound 880, N4-(2-Chloro-3-methoxypyrid-6-yl)-5-fluoro-N2-[3-(N-methylamino)carbonylmethyleneoxyphenyl]-2,4-pyrimidinediamine], for which the IC50 by setting is: under setting [1], less than 10 µM; under setting [2], less than 10 µM.
As to `COc1ccc(Nc2nc(Nc3ccc4cn[nH]c4c3)ncc2F)nc1Cl` [Compound 882], the IC50 under setting [3] is less than 10 µM.
Still for that read-out and setting: to `COc1ccc(Nc2nc(Nc3ccc4[nH]c(C(F)(F)F)nc4c3)ncc2F)nc1Cl` [Compound 883] belongs less than 10 µM; to `COc1ccc(Nc2nc(Nc3ccc4nc(C)[nH]c4c3)ncc2F)nc1Cl` [Compound 884], less than 10 µM.
Same read-out and setting: the figure for `COc1ccc(Nc2nc(Nc3ccc4cnn(C)c4c3)ncc2F)nc1Cl` [Compound 885] is less than 10 µM; for `COc1ccc(Nc2nc(Nc3ccc4c(cnn4C)c3)ncc2F)nc1Cl` [Compound 886] it is more than 10 µM.
Regarding `CCn1ncc2ccc(Nc3ncc(F)c(Nc4ccc(OC)c(Cl)n4)n3)cc21` [Compound 887], the IC50 under setting [3] was less than 10 µM.
On to `COc1ccc(Nc2nc(Nc3ccc4cnn(C(C)C)c4c3)ncc2F)nc1Cl` [Compound 888], for which the IC50 under setting [3] is less than 10 µM.
The same measure, in the same setting: to `COc1ccc(Nc2nc(Nc3ccc4c(c3)NC(=O)C(C)(C)O4)ncc2F)nc1Cl` [Compound 889] belongs less than 10 µM.
With `COc1ccc(Nc2nc(Nc3ccc4c(cnn4CCCNC(C)=O)c3)ncc2F)nc1Cl` [Compound 890], the IC50 under setting [3] is less than 10 µM.
Still for that read-out and setting: the figure for `COc1ccc(Nc2nc(Nc3ccc4c(cnn4CCCNC(=O)C4CC4)c3)ncc2F)nc1Cl` [Compound 891] is less than 10 µM.
Consider `COc1ccc(Nc2nc(Nc3ccc4c(cnn4CCCNC(=O)C(C)(C)C)c3)ncc2F)nc1Cl` [Compound 892], for which the IC50 under setting [3] is less than 10 µM.
On the same count and under the same terms, to `COc1ccc(Nc2nc(Nc3ccc4c(cnn4CCCNC(=O)C(C)C)c3)ncc2F)nc1Cl` [Compound 893] belongs less than 10 µM.
Same read-out and setting: the figure for `Cc1nc2cc(Nc3ncc(F)c(Nc4ccc(Cl)c(Cl)c4)n3)ccc2n1C` [Compound 894] is less than 10 µM; for `COc1ccc(Nc2nc(Nc3ccc4c(c3)nc(C)n4C)ncc2F)cc1Cl` [Compound 895] it is less than 10 µM.
Regarding `Cc1nc2cc(Nc3ncc(F)c(Nc4ccc5c(c4)NC(=O)C(C)(C)O5)n3)ccc2n1C` [Compound 896], the IC50 under setting [3] was less than 10 µM and the IC50 under setting [4] was less than 10 µM.
Turning to `Cc1nc2cc(Nc3ncc(F)c(Nc4ccc5c(c4)NC(=O)[C@H](C)O5)n3)ccc2n1C` [Compound 897], the IC50 by setting is: under setting [3], less than 10 µM; under setting [4], less than 10 µM.
`Cc1nc2cc(Nc3ncc(F)c(Nc4ccc5c(n4)NC(=O)C(C)(C)O5)n3)ccc2n1C` [Compound 898, N2-(1,2-Dimethylbenzimidazol-5-yl)-N4-(2,2-dimethyl-3-oxo-4H-5-pyrid[1,4]oxazin-6-yl)-5-Fluoro-2,4-pyrimidinediamine]: the IC50 runs as follows: under setting [3], less than 10 µM; under setting [4], less than 10 µM.
With `Cc1nc2cc(Nc3ncc(F)c(Nc4ccc(Cl)c(Cl)c4)n3)ccc2n1CCO` [Compound 899], the IC50 reads like this: under setting [3], less than 10 µM; under setting [4], less than 10 µM.
As to `COc1ccc(Nc2nc(Nc3ccc4c(c3)nc(C)n4CCO)ncc2F)cc1Cl` [Compound 900], the IC50 under setting [3] was less than 10 µM.
On to `Cc1nc2cc(Nc3ncc(F)c(Nc4ccc5c(c4)NC(=O)C(C)(C)O5)n3)ccc2n1CCO` [Compound 901], for which the IC50 was less than 10 µM under setting [3] and less than 10 µM under setting [4].
Turning to `Cc1nc2cc(Nc3ncc(F)c(Nc4ccc5c(c4)NC(=O)[C@H](C)O5)n3)ccc2n1CCO` [Compound 902], the IC50 under setting [4] was less than 10 µM.
As to `Cc1nc2cc(Nc3ncc(F)c(Nc4ccc5c(n4)NC(=O)C(C)(C)O5)n3)ccc2n1CCO` [Compound 903, N4-(2,2-Dimethyl-3-oxo-4H-5-pyrid[1,4]oxazin-6-yl)-5-fluoro-N2-[1-(2-hydroxyethyl)-2-methylbenzimidazol-5-yl)-2,4-pyrimidinediamine], under setting [4], the IC50 is less than 10 µM.
On to `Cn1c(=O)[nH]c2cc(Nc3ncc(F)c(Nc4ccc(Cl)c(Cl)c4)n3)ccc21` [Compound 904], for which the IC50 was more than 10 µM under setting [3] and more than 10 µM under setting [4].
Turning to `COc1ccc(Nc2nc(Nc3ccc4c(c3)[nH]c(=O)n4C)ncc2F)cc1Cl` [Compound 905], the IC50 is less than 10 µM under setting [3] and less than 10 µM under setting [4].
On to `Cn1c(=O)[nH]c2cc(Nc3ncc(F)c(Nc4ccc5c(c4)NC(=O)C(C)(C)O5)n3)ccc21` [Compound 906], for which the IC50 is less than 10 µM under setting [3] and less than 10 µM under setting [4].
For `C[C@@H]1Oc2ccc(Nc3nc(Nc4ccc5c(c4)[nH]c(=O)n5C)ncc3F)cc2NC1=O` [Compound 907], the IC50 runs as follows: under setting [3], less than 10 µM; under setting [4], less than 10 µM.
On to `Cn1c(=O)[nH]c2cc(Nc3ncc(F)c(Nc4ccc5c(n4)NC(=O)C(C)(C)O5)n3)ccc21` [Compound 908, N4-(2,2-Dimethyl-3-oxo-4H-5-pyrid[1,4]oxazin-6-yl)-N2-(2,3-dihydro-1-methyl-2-oxo-benzimidazol-5-yl)-5-fluoro-2,4-pyrimidinediamine], for which the IC50 is less than 10 µM under setting [1] and less than 10 µM under setting [2].
As for `Cc1nc2ccc(Nc3ncc(F)c(Nc4ccc5c(c4)NC(=O)C(C)S5(=O)=O)n3)cc2[nH]1` (centres unmarked) [Compound 909], the IC50 under setting [3] is less than 10 µM.
The same measure, in the same setting: the figure for `CC1C(=O)Nc2cc(Nc3nc(Nc4ccc5[nH]c(C(F)(F)F)nc5c4)ncc3F)ccc2S1(=O)=O` (centres unmarked) [Compound 910, 5-Fluoro-N4-(2-methyl-1,1,3-trioxo-2H,4H-benzo[1,4]thiazin-6-yl)-N2-(2-trifluoromethyl-1H-benzimidazol-5-yl)-2,4-pyrimidinediamine] is less than 10 µM.
As for `Cn1c(C(F)(F)F)nc2cc(Nc3ncc(F)c(Nc4ccc(Cl)c(Cl)c4)n3)ccc21` [Compound 911], the IC50 under setting [4] is less than 10 µM.
Same read-out and setting: the figure for `COc1ccc(Nc2nc(Nc3ccc4c(c3)nc(C(F)(F)F)n4C)ncc2F)cc1Cl` [Compound 912] is less than 10 µM.
On to `Cn1c(C(F)(F)F)nc2cc(Nc3ncc(F)c(Nc4ccc5c(c4)NC(=O)C(C)(C)O5)n3)ccc21` [Compound 913], for which, under setting [2], the IC50 is less than 10 µM.
For the compound `C[C@@H]1Oc2ccc(Nc3nc(Nc4ccc5c(c4)nc(C(F)(F)F)n5C)ncc3F)cc2NC1=O` [Compound 914], the IC50 under setting [4] was less than 10 µM.
With `OCCn1c(C(F)(F)F)nc2cc(Nc3ncc(F)c(Nc4ccc(Cl)c(Cl)c4)n3)ccc21` [Compound 916], the IC50 under setting [2] was less than 10 µM.
Consider `COc1ccc(Nc2nc(N)nc(-c3ccc4c(c3)nc(C(F)(F)F)n4CCO)c2F)cc1Cl` [Compound 917], for which the IC50 under setting [4] is less than 10 µM.
On to `CC1(C)Oc2ccc(Nc3nc(N)nc(-c4ccc5c(c4)nc(C(F)(F)F)n5CCO)c3F)cc2NC1=O` [Compound 918], for which the IC50 reads like this: under setting [3], less than 10 µM; under setting [4], less than 10 µM.
Consider `C[C@@H]1Oc2ccc(Nc3nc(N)nc(-c4ccc5c(c4)nc(C(F)(F)F)n5CCO)c3F)cc2NC1=O` [Compound 919], for which the IC50 runs as follows: under setting [3], less than 10 µM; under setting [4], less than 10 µM.
As for `COc1ccc(Nc2nc(Nc3ccc4oncc4c3)ncc2F)cc1Cl` [Compound 925], the IC50 under setting [3] is less than 10 µM.
As to `CC1(C)Oc2ccc(Nc3nc(Nc4ccc5oncc5c4)ncc3F)cc2NC1=O` [Compound 926], the IC50 under setting [4] is less than 10 µM.
Same read-out and setting: the figure for `C[C@@H]1Oc2ccc(Nc3nc(Nc4ccc5oncc5c4)ncc3F)cc2NC1=O` [Compound 927] is less than 10 µM.
`CC1(C)Oc2ccc(Nc3nc(Nc4ccc5oncc5c4)ncc3F)nc2NC1=O` [Compound 928, N2-(1,2-Benzisoxazol-5-yl)-N4-(2,2-dimethyl-3-oxo-4H-5-pyrido[1,4]oxazin-6-yl)-5-fluoro-2,4-pyrimidinediamine]: the IC50 under setting [2] was less than 10 µM.
For the compound `CC1(C)C(=O)Nc2cc(Nc3nc(Nc4ccc5oncc5c4)ncc3F)ccc2S1(=O)=O` [Compound 930], the IC50 under setting [3] was less than 10 µM.
On the same count and under the same terms, the figure for `CCn1c(C)nc2cc(Nc3ncc(F)c(Nc4ccc(Cl)c(Cl)c4)n3)ccc21` [Compound 932] is more than 10 µM; for `CCn1c(C)nc2cc(Nc3ncc(F)c(Nc4ccc(OC)c(Cl)c4)n3)ccc21` [Compound 933] it is less than 10 µM.
With `CCn1c(C)nc2cc(Nc3ncc(F)c(Nc4ccc5c(c4)NC(=O)C(C)(C)O5)n3)ccc21` [Compound 934], the IC50 under setting [3] was less than 10 µM.
For `CCn1c(C)nc2cc(Nc3ncc(F)c(Nc4ccc5c(c4)NC(=O)[C@H](C)O5)n3)ccc21` [Compound 935], the IC50 under setting [3] is less than 10 µM and the IC50 under setting [4] was less than 10 µM.
`CCn1c(C)nc2cc(Nc3ncc(F)c(Nc4ccc5c(n4)NC(=O)C(C)(C)O5)n3)ccc21` [Compound 936, N4-(2,2-Dimethyl-3-oxo-4H-5-pyrido[1,4]oxazin-6-yl)-N2-(1-ethyl-2-methylbenzimidazol-5-yl)-5-fluoro-2,4-pyrimidinediamine]: the IC50 under setting [1] was less than 10 µM.
For `OCCCn1c(C(F)(F)F)nc2cc(Nc3ncc(F)c(Nc4ccc(Cl)c(Cl)c4)n3)ccc21` [Compound 937], the IC50 was less than 10 µM under setting [3] and less than 10 µM under setting [4].
For the compound `COc1ccc(Nc2nc(Nc3ccc4c(c3)nc(C(F)(F)F)n4CCCO)ncc2F)cc1Cl` [Compound 938], under setting [3], the IC50 is less than 10 µM.
As for `CC1(C)Oc2ccc(Nc3nc(Nc4ccc5c(c4)nc(C(F)(F)F)n5CCCO)ncc3F)cc2NC1=O` [Compound 939], the IC50 under setting [3] was less than 10 µM and the IC50 under setting [4] was less than 10 µM.
`C[C@@H]1Oc2ccc(Nc3nc(Nc4ccc5c(c4)nc(C(F)(F)F)n5CCCO)ncc3F)cc2NC1=O` [Compound 940]: the IC50 runs as follows: under setting [3], less than 10 µM; under setting [4], less than 10 µM.
With `CC1(C)Oc2ccc(Nc3nc(Nc4ccc5c(c4)nc(C(F)(F)F)n5CCCO)ncc3F)nc2NC1=O` [Compound 941, N4-(2,2-Dimethyl-3-oxo-4H-5-pyrido[1,4]oxazin-6-yl)-5-fluoro-N2-[1-(3-hydroxypropyl)-2-trifluoromethylbenzimidazol-5-yl]-2,4-pyrimidinediamine], the IC50 is less than 10 µM under setting [1] and less than 10 µM under setting [2].
